Measurements: patent US20230086703A1, “N-(4-(5-chloropyridin-3-yl)phenyl)-2-(2-(cyclopropanesulfonamido)pyrimidin-4-yl) butanamide derivatives and related compounds as human CTPS1 inhibitors for the treatment of proliferative diseases” (Step Pharma S.A.S., priority 2019, published 2023)

Target: T1, human CTPS1 (Homo sapiens, UniProt P17812)
T1 construct: FLAG (with GG linker); His8 (with GG linker); purchased Proteros biostructures GmbH
T1 sequence (P17812 1-591): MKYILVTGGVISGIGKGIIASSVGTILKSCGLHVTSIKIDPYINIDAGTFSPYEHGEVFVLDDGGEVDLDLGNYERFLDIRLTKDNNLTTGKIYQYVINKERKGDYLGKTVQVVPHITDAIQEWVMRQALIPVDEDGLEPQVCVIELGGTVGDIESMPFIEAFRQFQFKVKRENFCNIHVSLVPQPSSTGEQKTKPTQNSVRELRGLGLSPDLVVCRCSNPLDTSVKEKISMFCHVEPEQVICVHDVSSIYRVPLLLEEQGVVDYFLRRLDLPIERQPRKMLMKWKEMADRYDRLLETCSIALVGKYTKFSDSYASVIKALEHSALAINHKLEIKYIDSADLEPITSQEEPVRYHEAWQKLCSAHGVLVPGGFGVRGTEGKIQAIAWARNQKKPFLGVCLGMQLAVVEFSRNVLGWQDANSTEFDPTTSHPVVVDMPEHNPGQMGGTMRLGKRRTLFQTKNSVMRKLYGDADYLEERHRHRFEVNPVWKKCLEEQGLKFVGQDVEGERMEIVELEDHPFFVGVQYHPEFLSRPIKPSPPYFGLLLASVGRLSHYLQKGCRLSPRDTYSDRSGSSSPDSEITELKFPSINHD
Assay: Human CTPS1 enzyme inhibition, ADP-Glo Max assay
Type: biochemical
Settings: ADP-Glo Max assay; Table 10; read-out: Human CTPS1 Enzyme Inhibition, IC50 grouped by potency range (CTPS1)
Method: The enzyme inhibitory activities of compounds invented against the target of interest were determined using the ADP-Glo™ Max assay (Promega, UK). Assays for human CTPS1 were performed in 1× assay buffer containing 50 mM Tris, 10 mM MgCl2, 0.01% Tween-20, pH to 8.0 accordingly. Finally, immediately before use, L-cysteine was added to the 1× assay buffer to a final concentration of 2 mM. All reagents are from Sigma-Aldrich unless specified otherwise.
3× human CTPS1 protein was prepared in 1× assay buffer to the final working protein concentration required for the reaction. A 2 uL volume per well of 3× human CTPS1 protein was mixed with 2 uL per well of 3× test compound (compound prepared in 1× assay buffer to an appropriate final 3× compound concentration respective to the concentration response curve designed for the compounds under test) for 10 minutes at 25° C. […] ADP-Glo™ Max reagent was added for 60 minutes (6 μL per well) and subsequently ADP-Glo™ Max development reagent was added for 60 minutes (12 uL per well) prior to signal detection in a microplate reader (EnVision® Multilabel Reader, Perkin Elmer). Following each reagent addition over the course of the assay, assay plates were pulse centrifuged for 30 seconds at 500 rpm.
In all cases, the enzyme converts ATP to ADP and the ADP-Glo™ Max reagent subsequently depletes any remaining endogenous ATP in the reaction system. The ADP-Glo™ Max detection reagent converts the ADP that has been enzymatically produced back into ATP and using ATP as a substrate together with luciferin for the enzyme luciferase, light is generated which produces a detectable luminescence. […] The percentage inhibition produced by each concentration of compound was calculated using the equation shown below: […]

| IC50 [nM] | SMILES |
| --- | --- |
| 100 to 1000 | CC(C)(C(=O)Nc1ccc(-c2cccnc2)nc1)c1csc(NS(=O)(=O)C2CC2)n1 [T116, N-([2,3′-bipyridin]-5-yl)-2-(2-(cyclopropanesulfonamido)thiazol-4-yl)-2-methylpropanamide] |
| < 100 | CCC(CC)(C(=O)Nc1ccc(-c2cncc(OC)n2)cc1)c1csc(NS(=O)(=O)C2CC2)n1 [T119, 2-(2-(cyclopropanesulfonamido)thiazol-4-yl)-2-ethyl-N-(4-(6-methoxypyrazin-2-yl)phenyl)butanamide] |
| < 100 | CCC(CC)(C(=O)Nc1ccc(-c2cccnc2)cc1F)c1csc(NS(=O)(=O)C2CC2)n1 [T121, 2-(2-(cyclopropanesulfonamido)thiazol-4-yl)-2-ethyl-N-(2-fluoro-4-(pyridin-3-yl)phenyl)butanamide] |
| < 100 | CCC(CC)(C(=O)Nc1ccc(-c2cnccn2)cc1)c1csc(NS(=O)(=O)C2CC2)n1 [T122, 2-(2-(cyclopropanesulfonamido)thiazol-4-yl)-2-ethyl-N-(4-(pyrazin-2-yl)phenyl)butanamide] |
| < 100 | CCCOc1cncc(-c2ccc(NC(=O)C(CC)(CC)c3csc(NS(=O)(=O)C4CC4)n3)cc2)n1 [T123, 2-(2-(cyclopropanesulfonamido)thiazol-4-yl)-2-ethyl-N-(4-(6-propoxypyrazin-2-yl)phenyl)butanamide] |
| < 100 | CCOc1cncc(-c2ccc(NC(=O)C(C)(C)c3csc(NS(=O)(=O)C4CC4)n3)c(F)c2)c1 [T125, 2-(2-(cyclopropanesulfonamido)thiazol-4-yl)-N-(4-(5-ethoxypyridin-3-yl)-2-fluorophenyl)-2-methylpropanamide] |
| < 100 | CC(C)(C(=O)Nc1ccc(-c2cncc(F)c2)cc1F)c1csc(NS(=O)(=O)C2CC2)n1 [T126, 2-(2-(cyclopropanesulfonamido)thiazol-4-yl)-N-(2-fluoro-4-(5-fluoropyridin-3-yl)phenyl)-2-methylpropanamide] |
| < 100 | CC(C)(C(=O)Nc1ccc(-c2cncc(Cl)c2)cc1F)c1csc(NS(=O)(=O)C2CC2)n1 [T128, N-(4-(5-chloropyridin-3-yl)-2-fluorophenyl)-2-(2-(cyclopropanesulfonamido)thiazol-4-yl)-2-methylpropanamide] |
| < 100 | CC(C)(C(=O)Nc1ccc(-c2cncc(C#N)c2)cc1F)c1csc(NS(=O)(=O)C2CC2)n1 [T129, N-(4-(5-cyanopyridin-3-yl)-2-fluorophenyl)-2-(2-(cyclopropanesulfonamido)thiazol-4-yl)-2-methylpropanamide] |
| < 100 | CC(C)(C(=O)Nc1ccc(-c2cncc(OCC(F)(F)F)n2)cc1F)c1csc(NS(=O)(=O)C2CC2)n1 [T131, 2-(2-(cyclopropanesulfonamido)thiazol-4-yl)-N-(2-fluoro-4-(6-(2,2,2-trifluoroethoxy)pyrazin-2-yl)phenyl)-2-methylpropanamide] |
| 100 to 1000 | CC(C)(C(=O)Nc1ccc(-c2cncc(OCC(F)(F)F)c2)cc1F)c1csc(NS(=O)(=O)C2CC2)n1 [T132, 2-(2-(cyclopropanesulfonamido)thiazol-4-yl)-N-(2-fluoro-4-(5-(2,2,2-trifluoroethoxy)pyridin-3-yl)phenyl)-2-methylpropanamide] |
| < 100 | CCOc1cncc(-c2ccc(NC(=O)C(C)(C)c3csc(NS(=O)(=O)C4CC4)n3)c(F)c2)n1 [T134, 2-(2-(cyclopropanesulfonamido)thiazol-4-yl)-N-(4-(6-ethoxypyrazin-2-yl)-2-fluorophenyl)-2-methylpropanamide] |

The next lines start with the compound.

| SMILES | IC50 [nM] |
| --- | --- |
| CC(C)(C(=O)Nc1ccc(-c2cncc(OCC(F)(F)F)n2)cn1)c1csc(NS(=O)(=O)C2CC2)n1 [T109, 2-(2-(cyclopropanesulfonamido)thiazol-4-yl)-2-methyl-N-(5-(6-(2,2,2-trifluoroethoxy)pyrazin-2-yl)pyridin-2-yl)propanamide] | < 100 |
| CC(C)(C(=O)Nc1ncc(-c2cnccn2)cc1F)c1csc(NS(=O)(=O)C2CC2)n1 [T110, 2-(2-(cyclopropanesulfonamido)thiazol-4-yl)-N-(3-fluoro-5-(pyrazin-2-yl)pyridin-2-yl)-2-methylpropanamide] | 100 to 1000 |
| CCOc1cncc(-c2cnc(NC(=O)C(C)(C)c3csc(NS(=O)(=O)C4CC4)n3)c(F)c2)n1 [T111, 2-(2-(cyclopropanesulfonamido)thiazol-4-yl)-N-(5-(6-ethoxypyrazin-2-yl)-3-fluoropyridin-2-yl)-2-methylpropanamide] | < 100 |
| CC(C)(C(=O)Nc1ncc(-c2cncc(C(F)(F)F)n2)cc1F)c1csc(NS(=O)(=O)C2CC2)n1 [T112, 2-(2-(cyclopropanesulfonamido)thiazol-4-yl)-N-(3-fluoro-5-(6-(trifluoromethyl)pyrazin-2-yl)pyridin-2-yl)-2-methylpropanamide] | < 100 |
| CC(C)(C(=O)Nc1ncc(-c2cncc(C#N)n2)cc1F)c1csc(NS(=O)(=O)C2CC2)n1 [T113, N-(5-(6-cyanopyrazin-2-yl)-3-fluoropyridin-2-yl)-2-(2-(cyclopropanesulfonamido)thiazol-4-yl)-2-methylpropanamide] | 1000 to 10000 |
| CC(C)(C(=O)Nc1ccc(-c2cncc(OCC(F)(F)F)c2)cn1)c1csc(NS(=O)(=O)C2CC2)n1 [T114, 2-(2-(cyclopropanesulfonamido)thiazol-4-yl)-2-methyl-N-(5′-(2,2,2-trifluoroethoxy)-[3,3′-bipyridin]-6-yl)propanamide] | 100 to 1000 |
| CC(C)(C(=O)Nc1ccc(-c2cncc(OC(F)F)c2)cn1)c1csc(NS(=O)(=O)C2CC2)n1 [T115, 2-(2-(cyclopropanesulfonamido)thiazol-4-yl)-N-(5′-(difluoromethoxy)-[3,3′-bipyridin]-6-yl)-2-methylpropanamide] | < 100 |
| CC(C)(C(=O)Nc1ccc(-c2cncnc2)nc1)c1csc(NS(=O)(=O)C2CC2)n1 [T117, 2-(2-(cyclopropanesulfonamido)thiazol-4-yl)-2-methyl-N-(6-(pyrimidin-5-yl)pyridin-3-yl)propanamide] | 100 to 1000 |
| CC(C)(C(=O)Nc1ccc(-c2cncc(OC(F)F)c2)cc1)c1csc(NS(=O)(=O)C2CC2)n1 [T118, 2-(2-(cyclopropanesulfonamido)thiazol-4-yl)-N-(4-(5-(difluoromethoxy)pyridin-3-yl)phenyl)-2-methylpropanamide] | < 100 |
| CC(C)(C(=O)Nc1ccc(-c2cncc(OCC(F)(F)F)n2)cc1)c1csc(NS(=O)(=O)C2CC2)n1 [T127, 2-(2-(cyclopropanesulfonamido)thiazol-4-yl)-2-methyl-N-(4-(6-(2,2,2-trifluoroethoxy)pyrazin-2-yl)phenyl)propanamide] | < 100 |
| COc1cncc(-c2ccc(NC(=O)C3(c4csc(NS(=O)(=O)C5CC5)n4)CCCC3)cc2)n1 [T130, 1-(2-(cyclopropanesulfonamido)thiazol-4-yl)-N-(4-(6-methoxypyrazin-2-yl)phenyl)cyclopentane-1-carboxamide] | < 100 |
| CC(C)(C(=O)Nc1ccc(-c2cncc(OCC(F)(F)F)c2)cc1)c1csc(NS(=O)(=O)C2CC2)n1 [T135, 2-(2-(cyclopropanesulfonamido)thiazol-4-yl)-2-methyl-N-(4-(5-(2,2,2-trifluoroethoxy)pyridin-3-yl)phenyl)propanamide] | 100 to 1000 |
| C#Cc1cncc(-c2ccc(NC(=O)C(C)(C)c3csc(NS(=O)(=O)C4CC4)n3)cc2)n1 [T136, 2-(2-(cyclopropanesulfonamido)thiazol-4-yl)-N-(4-(6-ethynylpyrazin-2-yl)phenyl)-2-methylpropanamide] | < 100 |
| CCOc1cncc(-c2ccc(NC(=O)C(C)(C)c3csc(NS(=O)(=O)C4CC4)n3)c(C)c2)n1 [T137, 2-(2-(cyclopropanesulfonamido)thiazol-4-yl)-N-(4-(6-ethoxypyrazin-2-yl)-2-methylphenyl)-2-methylpropanamide] | < 100 |
| Cc1cc(-c2cncc(Cl)n2)ccc1NC(=O)C(C)(C)c1csc(NS(=O)(=O)C2CC2)n1 [T138, N-(4-(6-chloropyrazin-2-yl)-2-methylphenyl)-2-(2-(cyclopropanesulfonamido)thiazol-4-yl)-2-methylpropanamide] | < 100 |
